# Results from US11162944B2, “Compositions and methods” (priority 2015, dated 2021).
# Like-named read-outs stand apart in the source and are kept apart here. Marks after values point to notes of the source that are not given here.
# System: biomarker (antibody) in serum samples from patients with symptoms of tuberculosis
# Assay type: binding, human
compound,measurement,setting,value
CCCCCCCCCCCCCCCCCCCCCC[C@@H](C(=O)OC[C@H]1O[C@H](OC)[C@@H](O)[C@@H]1O)[C@H](O)CCCCCCCCCCCCCCCCC[C@@H]1C[C@@H]1CCCCCCCCCCCCCCCC[C@@H](OC)[C@@H](C)CCCCCCCCCCCCCCCCCC [Antigen A],ELISA absorbance at 492 nm,serum sample 1 TB+,0.28*
same,ELISA absorbance at 492 nm,serum sample 2 TB+,0.29*
same,ELISA absorbance at 492 nm,serum sample 3 TB+,0.30*
same,ELISA absorbance at 492 nm,serum sample 4 TB+,0.50*
same,ELISA absorbance at 492 nm,serum sample 5 TB+,0.28*
same,ELISA absorbance at 492 nm,serum sample 6 TB+,0.28*
same,ELISA absorbance at 492 nm,serum sample 7 TB+,0.93*
same,ELISA absorbance at 492 nm,serum sample 8 TB+,0.47*
same,ELISA absorbance at 492 nm,serum sample 9 TB+,0.29*
same,ELISA absorbance at 492 nm,serum sample 10 TB−,0.21
same,ELISA absorbance at 492 nm,serum sample 11 TB−,0.20
same,ELISA absorbance at 492 nm,serum sample 12 TB−,0.18
same,ELISA absorbance at 492 nm,serum sample 13 TB−,0.22
same,ELISA absorbance at 492 nm,serum sample 14 TB−,0.49*
same,ELISA absorbance at 492 nm,serum sample 15 TB−,0.23
same,ELISA absorbance at 492 nm,serum sample 16 TB−,0.31*
same,ELISA absorbance at 492 nm,serum sample 17 TB−,0.52*
same,ELISA absorbance at 492 nm,serum sample 18 TB−,0.28*
same,ELISA absorbance at 492 nm,serum sample 19 TB−,0.20
same,ELISA absorbance at 492 nm,serum sample 20 TB−,0.34*
same,ELISA absorbance at 492 nm,serum sample 21 TB−,0.47*
same,ELISA absorbance at 492 nm,serum sample 22 TB−,0.23
same,ELISA absorbance at 492 nm,serum sample 23 TB−,0.25
same,ELISA absorbance at 492 nm,serum sample 24 TB−,0.29*
same,ELISA absorbance at 492 nm,serum sample 25 TB−,0.18
same,ELISA absorbance at 492 nm,serum sample 26 TB−,0.52*
same,ELISA absorbance at 492 nm,serum sample 27 TB−,0.31*
same,ELISA absorbance at 492 nm,serum sample 28 TB−,0.28*
same,ELISA absorbance at 492 nm,serum sample 29 TB−,0.28*
same,ELISA absorbance at 492 nm,serum sample 30 TB−,0.32*
same,ELISA absorbance at 492 nm,serum sample 31 TB−,0.31*
same,ELISA absorbance at 492 nm,serum sample 32 TB−,0.34*
same,ELISA absorbance at 492 nm,serum sample 33 TB−,0.18
same,ELISA absorbance at 492 nm,serum sample 34 TB−,0.39*
same,ELISA absorbance at 492 nm,serum sample 35 TB−,0.23
same,ELISA absorbance at 492 nm,serum sample 36 TB−,0.11
same,ELISA absorbance at 492 nm,serum sample 37 TB−,0.28*
same,ELISA absorbance at 492 nm,serum sample 38 TB−,0.29*
same,ELISA absorbance at 492 nm,serum sample 39 TB−,0.21
same,ELISA absorbance at 492 nm,serum sample 40 TB−,0.18
same,ELISA absorbance at 492 nm,serum sample 41 TB−,0.18
same,ELISA absorbance at 492 nm,serum sample 42 TB−,0.30*
same,ELISA absorbance at 492 nm,serum sample 43 TB−,0.25
same,ELISA absorbance at 492 nm,serum sample 44 TB−,0.41*
same,ELISA absorbance at 492 nm,serum sample 45 TB−,0.33*
same,ELISA absorbance at 492 nm,serum sample 46 TB−,0.13
same,ELISA absorbance at 492 nm,serum sample 47 TB−,0.34*
same,ELISA absorbance at 492 nm,serum sample 48 TB−,0.32*
same,ELISA absorbance at 492 nm,serum sample 49 TB−,0.38*
same,ELISA absorbance at 492 nm,serum sample 50 TB−,0.35*
same,ELISA absorbance at 492 nm,serum sample 51 TB−,0.11
same,ELISA absorbance at 492 nm,serum sample 52 TB−,0.21
same,ELISA absorbance at 492 nm,serum sample 53 TB−,0.16
same,ELISA absorbance at 492 nm,serum sample 54 TB−,0.17
same,ELISA absorbance at 492 nm,serum sample 55 TB−,0.24
same,ELISA absorbance at 492 nm,serum sample 56 TB−,0.68*
same,ELISA absorbance at 492 nm,serum sample 57 TB−,0.25
same,ELISA absorbance at 492 nm,serum sample 58 TB−,0.25
same,ELISA absorbance at 492 nm,serum sample 59 TB−,0.33*
same,ELISA absorbance at 492 nm,serum sample 60 TB−,0.37*
same,ELISA absorbance at 492 nm,serum sample 61 TB−,0.52*
same,ELISA absorbance at 492 nm,serum sample 62 TB−,0.19
same,ELISA absorbance at 492 nm,serum sample 63 TB−,0.16
same,ELISA absorbance at 492 nm,serum sample 64 TB−,2.50*
